Patent US4301140A, “Radiopharmaceutical method for monitoring kidneys” (G. D. Searle & Co., priority 1979, dated 1981)

How the values were obtained:
[1] = cited from earlier work
[2] = Scintiscan (Anger camera) monitoring of distribution of radioactivity after intravenous administration, rabbit; assay type: in vivo, New Zealand rabbit; design: key: -: no significant measured radioactivity; relative amounts of measured radioactivity ranging from (-) for no significant measured radioactivity to (+++) for the maximum measured radioactivity; relative amounts of measured radioactivity ranging from (-) for no significant measured radioactivity to (+++) for the maximum measured radioactivity; +++: the maximum measured radioactivity; details: i.v., 1.21 mg, 0.81 mCi
Description: Approximately 0.2 milliliter of a solution of the complex formed from technetium-99m and 0.95 milligram of fructose 1,6-diphosphate and prepared generally as described in Example 1 and having a radioactivity of 0.5 millicurie was administered intravenously to an anesthetized New Zealand rabbit weighing about 3 kilograms. Approximately the same volume of a solution of the complex formed from technetium-99m and 1.21 milligrams of fructose 6-phosphate prepared generally as described in Example 2, having a radioactivity of 0.81 millicurie was similarly administered to a second New Zealand rabbit of about the same weight. The injections were made using a 1 milliliter tuberculin syringe connected to a #23 gauge indwelling cannula inserted into a marginal ear vein. Each rabbit was positioned in a full ventral position for 2.5 to 3 hours during which time the disposition of the radioactivity in the rabbit in this position was monitored using a computer-augmented Anger camera. The measurements and results are discussed hereinafter, and the results of the test using the fructose 1,6-diphosphate and fructose 6-phosphate complexes are presented in Tables 1 and 2, respectively.
(§1) At various times after the aforesaid administrations of solutions of complexes of this invention, which times are indicated in Tables 1-6, scintiscan photographs and video tape recordings were taken of the aforesaid rabbit, beagles and monkeys using the Anger camera. This instrument was a Pho-Gamma LFOV Scintillation Camera System, Model 6413, fitted with a Model 3137 Vari-Back Camera, a Model 3122 Data-Store/Playback System and a Model 27851 Analog-Digital/Digital-AnalogConverter (all Searle Radiographics, Inc.). This entire system was interfaced with a Xerox 530 computer (Xerox Corp., Minneapolis, Minn.) which was programmed to record net counts per unit of time and percents of total counts in individual organs and to plot organ radioactivity versus time. The camera was operated with a 140 KeV high resolution Type II converging collimator using a 20 percent technetium-99m window. Generally 400,000 counts were accumulated on each scintiscan using both video tape and self-developing film, with the animal in the full ventral position. The photographs represented a visualization of the anatomic relationships in the kidneys.
(§2) Tables 1-6 contain semi-quantitative representations of the distribution of radioactivity in the organs of the test animals determined from the scintiscans. In Tables 1-6, (--), (+), (++) and (+++) indicate relative amounts of measured radioactivity ranging from (-) for no significant measured radioactivity to (+++) for the maximum measured radioactivity.

[3] = Scintiscan (Anger camera) monitoring of distribution of radioactivity after intravenous administration, female beagle dog; assay type: in vivo; design: key: -: no significant measured radioactivity; relative amounts of measured radioactivity ranging from (-) for no significant measured radioactivity to (+++) for the maximum measured radioactivity; relative amounts of measured radioactivity ranging from (-) for no significant measured radioactivity to (+++) for the maximum measured radioactivity; +++: the maximum measured radioactivity; details: i.v., 7.3 mg, 0.84 mCi
Description: (§3) This procedure used with the rabbits was repeated with additional anesthetized animals: two female beagle dogs and two female rhesus monkeys. In these cases, however, unlike the cases of the rabbits, the complex solutions, again prepared generally as described in Examples 1 and 2, were injected intravenously in a saphenous vein of the dogs and monkeys.
Three milliliters of a solution of the complex formed from technetium-99m and 9.4 milligrams of fructose 1,6-diphosphate and having a radioactivity of 0.5 mCi were administered to one such dog weighing 11.7 kilograms. In addition, 1.6 milliliters of a solution of the complex formed from technetium-99m and 7.3 milligrams of fructose 6-phosphate having a radioactivity of 0.84 mCi were administered to a second such dog weighing 10.5 kilograms.
as §1, §2

[4] = Scintiscan (Anger camera) monitoring of distribution of radioactivity after intravenous administration, rhesus monkey; assay type: in vivo; design: key: -: no significant measured radioactivity; relative amounts of measured radioactivity ranging from (-) for no significant measured radioactivity to (+++) for the maximum measured radioactivity; relative amounts of measured radioactivity ranging from (-) for no significant measured radioactivity to (+++) for the maximum measured radioactivity; +++: the maximum measured radioactivity; details: i.v., 7.6 mg, 0.79 mCi
Description: as §3
Similarly 0.3 milliliter of a solution of the complex formed from technetium-99m and 1.1 milligrams of fructose 1,6-diphosphate having a radioactivity of 1.2 mCi were administered to one such monkey weighing 5.1 kilograms. Also 1.5 milliliters of a solution of the complex formed from technetium-99m and 7.6 milligrams of fructose 6-phosphate having a radioactivity of 0.79 mCi were administered to a second such monkey weighing 6.7 kilograms.
as §1, §2

[5] = Appearance of radioactive complex in kidneys and urinary bladder calculated from video tape measurements (FIG. 1), male mongrel dog; assay type: in vivo; details: i.v., 3-5 mg, 3.5 mCi, about 45 min
Excerpt: as §1
The appearance in the kidneys and urinary bladder of a male mongrel dog weighing 14.1 kilograms, of the radioactive complex formed from technetium-99m and 3-5 milligrams of fructose 6-phosphate administered intravenously as described above in a 0.5-1.0 milliliter solution prepared as in Example 2 and having a radioactivity of 3.5 mCi, was calculated from video tape measurements by the computer and is plotted in FIG. 1 as the percentage of total radioactivity administered in the form of the radioactive complex versus time after administration. At about 45 minutes after administration, about 60 percent of the total radioactivity administered was concentrated in the urinary bladder, with less than 7 percent of the total dose of the radioactive complex in the kidneys.

[6] = Plasma clearance after intravenous injection, dogs (gamma spectrometer); assay type: in vivo, dog (male mongrel and female beagle); details: i.v., four tests
Description: In each case about 0.5-2 milliliters of a solution of the complex having radioactivity of about 1-4 mCi and formed from 0.5-10 milligrams of complexing agent were administered. […] The dogs ranged in weight from 6 to 15 kilograms. Periodically blood samples were removed from the jugular vein of the dogs and collected in vacuum tubes containing the disodium salt of ethylenediamine tetracetic acid and the radioactivity of one milliliter samples of plasma were measured in a gamma spectrometer.
The gamma spectrometer employed was a Model 1185 Gamma Scintillation Spectrometer (Searle Analytic Inc., Des Plaines, Ill.). One milliliter samples of plasma or whole blood were analyzed for technetium-99m, and samples were counted for 1 minute. As determined by the computer, the curve in FIG. 2 and the five other corresponding curves (not shown) from the other tests with the dogs were the best fitting curves passing through the plots of experimentally measured radioactivities.

## O=C(O)CNC(=O)c1ccccc1[131I] [131I-o-iodohippurate]
[1]; after intravenous injection
  route of excretion: excreted through the kidneys exclusively
[1]; in vivo
  clearance model: appears to follow the two-compartment model

## complex of technetium-99m and fructose 6-phosphate
[2]; 1 min
  Relative distribution of complex: Kidneys: ++
  Relative distribution of complex: Urinary Bladder: +
  Relative distribution of complex: Vascular: ++
[2]; 30 min
  Relative distribution of complex: Kidneys: ++
  Relative distribution of complex: Urinary Bladder: ++
  Relative distribution of complex: Vascular: +
[2]; 60 min
  Relative distribution of complex: Kidneys: ++
  Relative distribution of complex: Urinary Bladder: +++
  Relative distribution of complex: Vascular: +
[2]; 120 min
  Relative distribution of complex: Kidneys: +
  Relative distribution of complex: Urinary Bladder: +++
  Relative distribution of complex: Vascular: -
[2]; 150 min
  Relative distribution of complex: Kidneys: +
  Relative distribution of complex: Urinary Bladder: +++
  Relative distribution of complex: Vascular: -
[3]; 1 min
  Relative distribution of complex: Kidneys: ++
  Relative distribution of complex: Urinary Bladder: -
  Relative distribution of complex: Vascular: ++
[3]; 6 min
  Relative distribution of complex: Kidneys: ++
  Relative distribution of complex: Urinary Bladder: +
  Relative distribution of complex: Vascular: +
[3]; 25 min
  Relative distribution of complex: Kidneys: +
  Relative distribution of complex: Urinary Bladder: ++
  Relative distribution of complex: Vascular: +
[3]; 30 min
  Relative distribution of complex: Kidneys: +
  Relative distribution of complex: Urinary Bladder: +++
  Relative distribution of complex: Vascular: +
[3]; 40 min
  Relative distribution of complex: Kidneys: +
  Relative distribution of complex: Urinary Bladder: +++
  Relative distribution of complex: Vascular: -
[3]; 50 min
  Relative distribution of complex: Kidneys: +
  Relative distribution of complex: Urinary Bladder: +++
  Relative distribution of complex: Vascular: -
[3]; 60 min
  Relative distribution of complex: Kidneys: +
  Relative distribution of complex: Urinary Bladder: +++
  Relative distribution of complex: Vascular: -
[3]; 70 min
  Relative distribution of complex: Kidneys: +
  Relative distribution of complex: Urinary Bladder: +++
  Relative distribution of complex: Vascular: -
[3]; 80 min
  Relative distribution of complex: Kidneys: +
  Relative distribution of complex: Urinary Bladder: +++
  Relative distribution of complex: Vascular: -
[3]; 90 min
  Relative distribution of complex: Kidneys: +
  Relative distribution of complex: Urinary Bladder: +++
  Relative distribution of complex: Vascular: -
[4]; 4 min
  Relative distribution of complex: Kidneys: ++
  Relative distribution of complex: Urinary Bladder: +++
  Relative distribution of complex: Vascular: +
[4]; 30 min
  Relative distribution of complex: Kidneys: ++
  Relative distribution of complex: Urinary Bladder: +++
  Relative distribution of complex: Vascular: +
[4]; 50 min
  Relative distribution of complex: Kidneys: +
  Relative distribution of complex: Urinary Bladder: +++
  Relative distribution of complex: Vascular: -
[4]; 65 min
  Relative distribution of complex: Kidneys: +
  Relative distribution of complex: Urinary Bladder: +++
  Relative distribution of complex: Vascular: -
[5]
  percentage of total dose of the radioactive complex in the kidneys: less than 7%
  percentage of total radioactivity administered concentrated in the urinary bladder: about 60%
  radioactivity concentrated in any other organ: No measurable radioactivity
[6]; single obviously erroneous measurement eliminated, standard deviation 0.025 hour
  improved average half time, distributive phase: 0.072 h
[6]; single obviously erroneous measurement eliminated, standard deviation 0.72 hour
  improved average half time, elimination phase: 1.68 h
[6]; standard deviation 0.023 hour
  average half time, distributive phase: 0.088 h
[6]; standard deviation 3.29 hours
  average half time, elimination phase: 3.98 h
